Measured values from ChEMBL document CHEMBL3045004, “Design, synthesis and in vitro antibacterial and antifungal activities of some novel spiro[azetidine-2,3-indole]-2,4(1H)-dione” (2011).
Values after ≈ are worked out from the molar mass of the structure shown. Active and inactive are the calls of the source. The rule behind the calls is not given here.

Columns and labels:
Staphylococcus aureus = assay: Antibacterial activity against Staphylococcus aureus MTCC-96 after 24 hr by disk-diffusion method; format: functional
Pseudomonas aeruginosa = assay: Antibacterial activity against Pseudomonas aeruginosa MTCC-647 after 24 hr by disk-diffusion method; format: functional
Escherichia coli = assay: Antibacterial activity against Escherichia coli MTCC-521 after 24 hr by disk diffusion method; format: functional
Aspergillus niger [1] = assay: Antifungal activity against Aspergillus niger MTCC-343 after 3 to 4 days by serial plate dilution method; format: functional; details: for MIC: Aspergillus niger, MTCC-343
Candida albicans [2] = assay: Antifungal activity against Candida albicans MTCC-183 after 3 to 4 days by serial plate dilution method; format: functional; details: for MIC: Candida albicans, MTCC-183
Candida albicans [3] = assay: Antifungal activity against Candida albicans MTCC-183 at >100 ug/ml after 3 to 4 days by serial plate dilution method; format: functional, organism-based
Aspergillus niger [4] = assay: Antifungal activity against Aspergillus niger MTCC-343 at >100 ug/ml after 3 to 4 days by serial plate dilution method; format: functional, organism-based
[5] = Staphylococcus aureus, MTCC-96, 24 h
[6] = Pseudomonas aeruginosa, MTCC-647, 24 h
[7] = Escherichia coli, MTCC-521, 24 h

Compound	MIC (Staphylococcus aureus)	MIC (Pseudomonas aeruginosa)	MIC (Escherichia coli)	diameter of the inhibition zone (DIZ) (Staphylococcus aureus)	MIC (Staphylococcus aureus; [5])	diameter of the inhibition zone (DIZ) (Pseudomonas aeruginosa)	MIC (Pseudomonas aeruginosa; [6])	diameter of the inhibition zone (DIZ) (Escherichia coli)	MIC (Escherichia coli; [7])	inhibition zone (IZ) (Aspergillus niger [1])	MIC (Aspergillus niger [1])	inhibition zone (IZ) (Candida albicans [2])	MIC (Candida albicans [2])	Activity (Candida albicans [3])	Activity (Aspergillus niger [4])
GENTAMICIN	6.25 µg/mL	6.25 µg/mL	6.25 µg/mL												
Cc1ccc(N2C(=O)C(Cl)C23C(=O)Nc2ccccc23)cc1 (stereo unspecified)				19 mm	25 µg/mL (≈ 79.9 µM)	17 mm	25 µg/mL (≈ 79.9 µM)	20 mm	25 µg/mL (≈ 79.9 µM)	22 mm	6.25 µg/mL (≈ 20 µM)	16 mm	12.5 µg/mL (≈ 40 µM)		
Cc1ccccc1N1C(=O)C(Cl)C12C(=O)Nc1ccccc12 (stereo unspecified)				22 mm	12.5 µg/mL (≈ 40 µM)	17 mm	25 µg/mL (≈ 79.9 µM)	19 mm	25 µg/mL (≈ 79.9 µM)	24 mm	6.25 µg/mL (≈ 20 µM)	11 mm	25 µg/mL (≈ 79.9 µM)		
O=C1C(Cl)C2(C(=O)Nc3ccccc32)N1c1ccccc1[N+](=O)[O-] (stereo unspecified)				17 mm	12.5 µg/mL (≈ 36.4 µM)	19 mm	25 µg/mL (≈ 72.7 µM)	21 mm	12.5 µg/mL (≈ 36.4 µM)	17 mm	12.5 µg/mL (≈ 36.4 µM)			inactive	
OC(Cn1cncn1)(Cn1cncn1)c1ccc(F)cc1F [FLUCONAZOLE]										26 mm	6.25 µg/mL (≈ 20.4 µM)	27 mm	6.25 µg/mL (≈ 20.4 µM)		
CN[C@@H]1[C@H](O[C@H]2[C@H](O[C@H]3[C@H](O)[C@@H](O)[C@H](N=C(N)N)[C@@H](O)[C@@H]3N=C(N)N)O[C@@H](C)[C@]2(O)C=O)O[C@@H](CO)[C@H](O)[C@H]1O [STREPTOMYCIN]				31 mm	6.25 µg/mL (≈ 10.7 µM)	31 mm	6.25 µg/mL (≈ 10.7 µM)	26 mm	6.25 µg/mL (≈ 10.7 µM)						
Cc1ccc(N2C(=O)C(Cl)C23C(=O)Nc2c(Br)cc(Br)cc23)cc1 (stereo unspecified)				24 mm	6.25 µg/mL (≈ 13.3 µM)	26 mm	6.25 µg/mL (≈ 13.3 µM)	22 mm	12.5 µg/mL (≈ 26.6 µM)			16 mm	12.5 µg/mL (≈ 26.6 µM)		inactive
O=C1C(Cl)C2(C(=O)Nc3c(Br)cc(Br)cc32)N1c1ccc([N+](=O)[O-])cc1 (stereo unspecified)				28 mm	6.25 µg/mL (≈ 12.5 µM)	28 mm	6.25 µg/mL (≈ 12.5 µM)	24 mm	6.25 µg/mL (≈ 12.5 µM)	23 mm	6.25 µg/mL (≈ 12.5 µM)	26 mm	6.25 µg/mL (≈ 12.5 µM)		
O=C1C(Cl)C2(C(=O)Nc3ccccc32)N1c1ccccc1 (stereo unspecified)				21 mm	12.5 µg/mL (≈ 41.8 µM)	18 mm	25 µg/mL (≈ 83.7 µM)	19 mm	25 µg/mL (≈ 83.7 µM)	22 mm	12.5 µg/mL (≈ 41.8 µM)	23 mm	6.25 µg/mL (≈ 20.9 µM)		
CCC(C)n1ncn(-c2ccc(N3CCN(c4ccc(OCC5COC(Cn6cncn6)(c6ccc(Cl)cc6Cl)O5)cc4)CC3)cc2)c1=O (stereo unspecified) [ITRACONAZOLE]										25 mm	6.25 µg/mL (≈ 8.86 µM)	27 mm	6.25 µg/mL (≈ 8.86 µM)		
O=C1C(Cl)C2(C(=O)Nc3c(Br)cc(Br)cc32)N1c1ccccc1 (stereo unspecified)				24 mm	6.25 µg/mL (≈ 13.7 µM)	26 mm	12.5 µg/mL (≈ 27.4 µM)	21 mm	12.5 µg/mL (≈ 27.4 µM)	14 mm	25 µg/mL (≈ 54.8 µM)	17 mm	12.5 µg/mL (≈ 27.4 µM)		
CC1(C)S[C@@H]2[C@H](NC(=O)[C@H](N)c3ccc(O)cc3)C(=O)N2[C@H]1C(=O)O [AMOXICILLIN]				29 mm	6.25 µg/mL (≈ 17.1 µM)	30 mm	6.25 µg/mL (≈ 17.1 µM)	25 mm	6.25 µg/mL (≈ 17.1 µM)						
Cc1ccccc1N1C(=O)C(Cl)C12C(=O)Nc1c(Br)cc(Br)cc12 (stereo unspecified)				23 mm	6.25 µg/mL (≈ 13.3 µM)	24 mm	12.5 µg/mL (≈ 26.6 µM)	23 mm	6.25 µg/mL (≈ 13.3 µM)	17 mm	12.5 µg/mL (≈ 26.6 µM)	19 mm	6.25 µg/mL (≈ 13.3 µM)		
O=C1C(Cl)C2(C(=O)Nc3c(Br)cc(Br)cc32)N1c1ccccc1[N+](=O)[O-] (stereo unspecified)				27 mm	6.25 µg/mL (≈ 12.5 µM)	27 mm	6.25 µg/mL (≈ 12.5 µM)	21 mm	6.25 µg/mL (≈ 12.5 µM)	14 mm	25 µg/mL (≈ 49.8 µM)	19 mm	6.25 µg/mL (≈ 12.5 µM)		
O=C1C(Cl)C2(C(=O)Nc3ccccc32)N1c1ccc([N+](=O)[O-])cc1 (stereo unspecified)				19 mm	25 µg/mL (≈ 72.7 µM)	17 mm	25 µg/mL (≈ 72.7 µM)	20 mm	25 µg/mL (≈ 72.7 µM)	24 mm	6.25 µg/mL (≈ 18.2 µM)	25 mm	6.25 µg/mL (≈ 18.2 µM)		
